Legend:
Format in all cases: functional
[1] = system: Staphylococcus aureus; experiment: Antibacterial activity against Staphylococcus aureus ATCC 29213 assessed as reduction in microbial growth after 20 hrs by microdilution method; settings: ATCC 29213, 20 h
[2] = system: Staphylococcus aureus; experiment: Antibacterial activity against Staphylococcus aureus ATCC 23235 assessed as reduction in microbial growth after 20 hrs by microdilution method; settings: ATCC 23235, 20 h
[3] = system: Staphylococcus aureus; experiment: Antibacterial activity against Staphylococcus aureus 6538P assessed as reduction in microbial growth after 20 hrs by microdilution method
[4] = system: Staphylococcus epidermidis; experiment: Antibacterial activity against Staphylococcus epidermidis ATCC 35984 assessed as reduction in microbial growth after 20 hrs by microdilution method; settings: ATCC 35984, 20 h
[5] = system: Listeria monocytogenes; experiment: Antibacterial activity against Listeria monocytogenes MB677 assessed as reduction in microbial growth after 20 hrs by microdilution method; settings: MB677, 20 h
[6] = system: Stenotrophomonas maltophilia; experiment: Antibacterial activity against Stenotrophomonas maltophilia ATCC 13637 assessed as reduction in microbial growth after 20 hrs by microdilution method; settings: ATCC 13637, 20 h
[7] = system: Stenotrophomonas maltophilia; experiment: Antibacterial activity against Stenotrophomonas maltophilia ATCC 13636 assessed as reduction in microbial growth after 20 hrs by microdilution method; settings: ATCC 13636, 20 h
[8] = system: Stenotrophomonas maltophilia; experiment: Antibacterial activity against Stenotrophomonas maltophilia ATCC 700475 assessed as reduction in microbial growth after 20 hrs by microdilution method; settings: ATCC 700475, 20 h

| SMILES | MIC [1] [µg/mL] | MIC50 [1] [µg/mL] | MIC [2] [µg/mL] | MIC50 [2] [µg/mL] | MIC50 [3] [µg/mL] | MIC [4] [µg/mL] | MIC50 [4] [µg/mL] | MIC [5] [µg/mL] | MIC50 [5] [µg/mL] | MIC [6] [µg/mL] | MIC50 [6] [µg/mL] | MIC [7] [µg/mL] | MIC50 [7] [µg/mL] | MIC [8] [µg/mL] | MIC50 [8] [µg/mL] | MIC [3] [µg/mL] |
| --- | --- | --- | --- | --- | --- | --- | --- | --- | --- | --- | --- | --- | --- | --- | --- | --- |
| CCCCCC1=C/C(=C\c2[nH]c(-c3ccc[nH]3)cc2OC)N=C1C | 3.3 | 0.05 | 1.3 | 0.06 | 0.04 | 2 | 0.33 | 1.7 | 0.16 | 1.7 | 0.66 | 1.7 | 0.13 | 2.7 | 0.5 | 1.7 |
| CC1(C)S[C@@H]2[C@H](NC(=O)[C@H](N)c3ccccc3)C(=O)N2[C@H]1C(=O)O [AMPICILLIN] |  |  |  |  |  |  |  | 0.8 |  |  |  |  |  |  |  |  |
| CN[C@H](CC(C)C)C(=O)N[C@H]1C(=O)N[C@@H](CC(N)=O)C(=O)N[C@H]2C(=O)N[C@H]3C(=O)N[C@H](C(=O)N[C@H](C(=O)O)c4cc(O)cc(O)c4-c4cc3ccc4O)[C@H](O)c3ccc(c(Cl)c3)Oc3cc2cc(c3O[C@@H]2O[C@H](CO)[C@@H](O)[C@H](O)[C@H]2O[C@H]2C[C@](C)(N)[C@H](O)[C@H](C)O2)Oc2ccc(cc2Cl)[C@H]1O [VANCOMYCIN] |  |  |  |  |  |  |  |  |  |  |  |  |  |  |  | 1.7 |

Second part, led by results:

| MIC [1] [µg/mL] | MIC50 [1] [µg/mL] | MIC [2] [µg/mL] | MIC50 [2] [µg/mL] | MIC50 [3] [µg/mL] | MIC [4] [µg/mL] | MIC50 [4] [µg/mL] | MIC [5] [µg/mL] | MIC50 [5] [µg/mL] | MIC [6] [µg/mL] | MIC50 [6] [µg/mL] | MIC [7] [µg/mL] | MIC50 [7] [µg/mL] | MIC [8] [µg/mL] | MIC50 [8] [µg/mL] | SMILES | MIC [3] [µg/mL] |
| --- | --- | --- | --- | --- | --- | --- | --- | --- | --- | --- | --- | --- | --- | --- | --- | --- |
| 27 | 0.5 | 21 | 0.5 | 0.2 | 27 | 2.7 | 21 | 3.3 | 27 | 3.3 | 27 | 3.3 | 27 | 4 | COc1cc(-c2ccc[nH]2)[nH]c1/C=C1/C=C(CCCCC(C)C)C(C)=N1 | 21 |
| 4 | 0.06 | 3.3 | 0.08 | 0.05 | 3.3 | 0.5 | 4 | 0.4 | 3.3 | 2 | 3.3 | 1 | 5.3 | 1.7 | COc1cc(-c2ccc[nH]2)[nH]c1/C=C1\N=C(C)C2=C1C(C)CCC2 (stereo not drawn) | 3.3 |
|  |  |  |  |  |  |  |  |  | 3.3 |  | 4 |  | 4 |  | O=C(N[C@H](CO)[C@H](O)c1ccc([N+](=O)[O-])cc1)C(Cl)Cl [CHLORAMPHENICOL] |  |

Reference: ChEMBL document CHEMBL4616649, “Genomics-Metabolomics Profiling Disclosed Marine Vibrio spartinae 3.6 as a Producer of a New Branched Side Chain Prodigiosin” (2020)
